Legend:
VEGFC = assay: qRT-PCR analysis of VEGFC expression in cultured hippocampal neurons
VEGFD = assay: qRT-PCR analysis of VEGFD expression in cultured hippocampal neurons; type: cell-based, mouse
Procedure: RNA extraction and cDNA synthesis. Total RNA was isolated at DIV10 to DIV13 from hippocampal primary neuron cultures or isolated brain tissues with Rneasy Mini Kit (Qiagen, Hilden, Germany) including an optional Dnase I treatment at room temperature for 15 min according to manufacturer's instructions (Qiagen). 1.2 µg of extracted RNA was reverse transcribed into first strand cDNA using High Capacity cDNA Reverse Transcription kit (Applied Biosystems, Foster City, CA).
Real time quantitative PCR. Quantitative reverse transcriptase PCR (qRT-PCR) was done on an ABI7300 thermal cycler using Universal qRT-PCR master mix with TaqMan Gene Expression Assays for the indicated genes (Applied Biosystems). The following TaqMan Gene Expression Assays were used in this study: Gusb (Mm00446953_m1), cFos (Mm00487425_m1), VEGFD (Mm00438965_m1), VEGFC (Mm01202432_m1), VEGF (Mm01281449_m1), VEGFR3 (Mm01292618_m1), beta-actin (Mm00607939_s1), beta-2 microglobulin (Mm00437762_m1), CBP (Mm01342435_m1), p38 MAPK alpha (Mm00442497_m1), p38 MAPK beta (Mm00440955_m1). Expression of target genes was normalized against the expression of Gusb as endogenous control gene. Data were derived from at least 5 independent experiments.

cFos = assay: qRT-PCR analysis of cFos expression in cultured hippocampal neurons
hippocampal neurons = assay: Morphometric analyses (total dendritic length, Sholl analysis, spines) of cultured hippocampal neurons; type: cell-based, C57BL/6 mice
Procedure: Hippocampal cultures and transfection. Hippocampal neurons from newborn C57BL/6 mice were cultured as known in the art. Experiments were done after a culturing period of 10 to 14 days in vitro (DIV). DNA transfection was done on DIV8 using Lipofectamine 2000 (Invitrogen, San Diego, CA). For the studies on dendrite morphology, neurons were analyzed 4-5 days after transfection.
Morphometric analyses. For 3D Sholl Analysis, total dendritic length and spine morphology were calculated using Object-Image freeware software with a specific set of macros (written by Dr. E. Ruthazer, McGill University, Quebec). Briefly, a z-Stack acquisition was imported, calibrated in Object-Image and manually traced. Total dendritic length was then computed. For Sholl analysis, the shell interval was set at 5 µm. All analyses were performed blind. In all in vitro experiments, for each condition, a minimum of 12 neurons from three independent preparations was analyzed. For the Golgi staining quantifications of 20 neurons for each condition from 4 different injected animals per viral construct were traced and analyzed. MEA recordings. […]
Immunocytochemistry. […] For the morphometric analyses, fluorescence images were acquired using a confocal laser-scanning microscope TCS SP2 (Leica, Mannheim, Germany) equipped with an inverted fluorescence microscope DM IRE2 (Leica) and Leica confocal scan software. […]

CN1CCc2cc3c(cc2[C@H]1[C@@H]1OC(=O)c2c1ccc1c2OCO1)OCO3 [Bicuculline]
VEGFC mRNA levels (VEGFC): did not alter VEGFC or VEGFD mRNA levels
VEGFD mRNA levels (VEGFD): did not alter VEGFC or VEGFD mRNA levels
cFos mRNA (cFos): robust induction of cFos mRNA

C[C@]12N[C@H](Cc3ccccc31)c1ccccc12 [MK801]
expression of VEGFD mRNA (VEGFD; 10 µM MK801, 10 µM nifedipine or both, DIV5 to DIV10): significantly reduced the expression of VEGFD mRNA

C[S+]([O-])c1ccc(-c2nc(-c3ccncc3)c(-c3ccc(F)cc3)[nH]2)cc1 (stereo not drawn) [SB203580]
effect on rVEGFD-induced rescue of dendrite length and complexity (hippocampal neurons; neurons expressing CaMBP4 (and CaMKIVK75E), treated 3 days with rVEGFD): severely compromised the ability of rVEGFD to rescue the impairment of dendrite length and complexity
Sholl analysis (hippocampal neurons; neurons expressing hrGFP, CaMBP4 or CaMKIVK75E, treated with SB203580 without rVEGFD): no difference compared to the respective untreated controls
